Measurements published in patent publication US6603044B1, “Phthalamide derivatives, or salt thereof agrohorticultural insecticide, and method for using the same” (Nihon Nohyaku Co., Ltd., priority 1998, dated 2003).

Assays:
Assay type in all cases: in vivo
[1] = test system: Common Cutworm (Spodoptera Litura); test: Insecticidal effect on common cutworm (Test Example 2); conditions: 50 ppm; cabbage leaf immersed about 30 seconds; second-instar larvae; 25° C.; eight days after the inoculation
Description: Insecticidal Effect on Common Cutworm (Spodoptera Litura)
A piece of cabbage leaf (cultivar; Shikidori) was immersed for about 30 seconds in a liquid chemical prepared by diluting a preparation containing each compound listed in Table 1, 2 or 3 as an active ingredient to adjust the concentration to 50 ppm. After air-dryness, it was placed in a plastic Petri dish with a diameter of 9 cm and inoculated with second-instar larvae of common cutworm, after which the dish was closed and then allowed to stand in a room thermostatted at 25° C. Eight days after the inoculation, the dead and alive were counted. The mortality was calculated according to the following equation and the insecticidal effect was judged according to the criterion shown in Test Example 1. The test was carried out with triplicate groups of 10 insects. [formula]

[2] = test system: Diamond Back Moth (Plutella xylostella); test: Insecticidal effect on diamond back moth (Test Example 1); conditions: 50 ppm; Chinese cabbage seedling with deposited eggs immersed about 30 seconds; 25° C.; six days after the immersion
Procedure, shortened: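 Chinese cabbage seedlings carrying two-day-old eggs were dipped about 30 seconds in a 50 ppm dilution of formulated compound, air-dried and kept at 25° C. Hatched larvae were counted six days later to derive mortality, with triplicate groups of 10 insects.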

[3] = test system: Smaller tea Tortrix (Adoxophyes sp.); test: Insecticidal effect on smaller tea tortrix (Test Example 3); conditions: 50 ppm; tea leaf immersed 30 seconds; larvae; 25° C., humidity 70%; eight days after the inoculation
Description: Insecticidal Effect on Smaller tea Tortrix (Adoxophyes sp.)
A leaf of tea tree was immersed for 30 seconds in a liquid chemical containing each compound listed in Table 1, 2 or 3 as an active ingredient to adjust the concentration to 50 ppm. After air-dryness, the leaf was transferred to a plastic dish with a diameter of 9 cm and inoculated with larval smaller tea tortrix. Then, the leaf was allowed to stand in a room thermostatted at 25° C. at a humidity of 70%. Eight days after the inoculation, the dead and alive were counted, and the insecticidal effect was judged according to the same criterion as mentioned in Test Example 1. The test was carried out with triplicate groups of 10 insects.

| SMILES | Test Example 2 insecticidal effect (mortality) [1] | Test Example 1 insecticidal effect (mortality) [2] | Test Example 3 insecticidal effect (mortality) [3] |
| --- | --- | --- | --- |
| CSCCC(C)NC(=O)c1cccc(I)c1C(=O)Nc1ccc(C(F)(C(F)(F)F)C(F)(F)F)cc1C (centres unmarked) [Compound No. 162, 6-Iodo-N^1-(4-heptafluoroisopropyl-2-methylphenyl)-N^2-(1-methyl-3-methylthiopropyl)phthalamide] | A (100) | A (100) | A (100) |
| CSCCC(C)NC(=O)c1c(I)cccc1C(=O)Nc1ccc(C(F)(C(F)(F)F)C(F)(F)F)cc1C (centres unmarked) [Compound No. 195, 3-Iodo-N^1-(4-heptafluoroisopropyl-2-methylphenyl)-N^2-(1-methyl-3-methylsulfenylpropyl)-phthalamide] | A (100) | A (100) | A (100) |
| Cc1cc(C(F)(C(F)(F)F)C(F)(F)F)ccc1NC(=O)c1cccc(I)c1C(=O)NC(C)CCS(C)(=O)=O (centres unmarked) [Compound No. 196, 3-Iodo-N^1-(4-heptafluoroisopropyl-2-methylphenyl)-N^2-(1-methyl-3-methylsulfonylpropyl)-phthalamide] | A (100) | A (100) | A (100) |
| CSCC(C)NC(=O)c1c(OC(F)(F)F)cccc1C(=O)Nc1ccc(C(F)(C(F)(F)F)C(F)(F)F)cc1C (centres unmarked) [Compound No. 210, N^1-(4-Heptafluoroisopropyl-2-methylphenyl)-N^2-3-(1-methyl-2-methylthioethyl)-3-trifluoromethoxyphthalamide] | A (100) | A (100) | A (100) |
| Cc1cc(OC(F)(F)F)ccc1NC(=O)c1cccc(I)c1C(=O)NC(C)(C)C[S+](C)[O-] (centres unmarked) [compound 141] | A (100) | A (100) |  |
| Cc1cc(OC(F)(F)F)ccc1NC(=O)c1cccc(Cl)c1C(=O)NC(C)C[S+](C)[O-] (centres unmarked) [compound 143] | D (79-50) | A (100) |  |
| Cc1cc(C(F)(F)C(F)(F)F)ccc1NC(=O)c1cccc(Cl)c1C(=O)NC(C)C[S+](C)[O-] (centres unmarked) [compound 144] | A (100) | A (100) |  |
| CSCC(C)NC(=O)c1c(C(=O)Nc2ccc(C(F)(F)C(F)(F)F)cc2C)ccc(F)c1Cl (centres unmarked) [compound 148] | C (89-80) | A (100) |  |
| CSCC(C)NC(=O)c1c(C(=O)Nc2ccc(C(F)(C(F)(F)F)C(F)(F)F)cc2C)ccc(F)c1Cl (centres unmarked) [compound 149] | A (100) | A (100) |  |
| Cc1cc(OC(F)(F)F)ccc1NC(=O)c1ccc(Cl)c(Cl)c1C(=O)NC(C)C[S+](C)[O-] (centres unmarked) [compound 193] | D (79-50) | A (100) |  |
| CSCC(C)(C)NC(=O)c1c(Br)cccc1C(=O)Nc1ccc(OC(F)(F)F)cc1Cl [compound 227] | A (100) | A (100) |  |
| CC(C)(CS(C)(=O)=O)NC(=O)c1c(Br)cccc1C(=O)Nc1ccc(OC(F)(F)F)cc1Cl [compound 228] | A (100) | A (100) |  |
| C[S+]([O-])CC(C)(C)NC(=O)c1c(Br)cccc1C(=O)Nc1ccc(OC(F)(F)F)cc1Cl (centres unmarked) [compound 232] | A (100) | A (100) |  |
| CSCC(C)NC(=O)c1c(I)cccc1C(=O)Nc1ccc(OC(F)(F)F)cc1Cl (centres unmarked) [compound 233] | A (100) | A (100) |  |
| CCS(=O)(=O)CC(C)(C)NC(=O)c1c(I)cccc1C(=O)Nc1ccc(OC(F)(F)F)cc1C [compound 250] | A (100) | A (100) |  |
| CSCC(C)NC(=O)c1c(C(=O)Nc2ccc(OC(F)(F)F)cc2C)ccc2c1OC(F)(F)O2 (centres unmarked) [compound 290] | D (79-50) | A (100) |  |
| Cc1cc(C(F)(F)F)ccc1NC(=O)c1cccc(Br)c1C(=O)NC(C)(C)C[S+](C)[O-] (centres unmarked) [compound 311] | A (100) | A (100) |  |
| CSCC(C)NC(=O)c1c(Br)cccc1C(=O)Nc1ccc(OC(F)(F)F)cc1Cl (centres unmarked) [compound 337] | A (100) | A (100) |  |
| CC(C[S+](C)[O-])NC(=O)c1c(Br)cccc1C(=O)Nc1ccc(OC(F)(F)F)cc1Cl (centres unmarked) [compound 338] | A (100) | A (100) |  |
| COCC[S+]([O-])CC(C)NC(=O)c1c(I)cccc1C(=O)Nc1ccc(C(F)(C(F)(F)F)C(F)(F)F)cc1C (centres unmarked) [compound 340] | A (100) | A (100) |  |
| C[S+]([O-])CC(C)(C)NC(=O)c1c(Cl)cccc1C(=O)Nc1ccc(OC(F)(F)F)cc1Cl (centres unmarked) [compound 370] | A (100) | A (100) |  |
| Cc1cc(C(F)(F)C(F)(F)F)ccc1NC(=O)c1cccc([N+](=O)[O-])c1C(=O)NC(C)(C)CS(C)(=O)=O [compound 375] | A (100) | A (100) |  |
| CC(C[S+](C)[O-])NC(=O)c1c(Cl)cccc1C(=O)Nc1ccc(OC(F)(F)F)cc1Cl (centres unmarked) [compound 381] | A (100) | A (100) |  |
| CSCC(C)(C)NC(=O)c1c(F)cccc1C(=O)Nc1ccc(OC(F)(F)F)cc1Cl [compound 385] | C (89-80) | A (100) |  |
| Cc1cc(Oc2ncc(C(F)(F)F)cc2Cl)ccc1NC(=O)c1cccc(I)c1C(=O)NC(C)C[S+](C)[O-] (centres unmarked) [compound 410] | A (100) | A (100) |  |
| CNC(=S)SCC(C)NC(=O)c1c(I)cccc1C(=O)Nc1ccc(C(F)(C(F)(F)F)C(F)(F)F)cc1C (centres unmarked) [compound 425] | A (100) | A (100) |  |
